These results are taken from patent US8357635B2, “Microbiocides” (Syngenta Crop Protection LLC, priority 2009, dated 2013).

Structures are written as SMILES. Several values for one entry are separate records, joined by “and”; a condition that tells them apart may be missing. Identical values can stand only once.

In series [1] the test system is Erysiphe graminis f.sp. tritici. Description: Action against Erysiphe graminis f.sp. tritici (wheat powdery mildew), wheat leaf segments. Type of series: in vivo. The conditions noted are these: Blumeria graminis, foliar, 168 h; 0.02% active ingredient sprayed on wheat leaf segments, assessed 7 days after inoculation; read-out: preventive fungicidal activity (inhibition). Here is the method: Wheat leaf segments were placed on agar in multiwell plates (24-well format) and sprayed with test solutions (0.02% active ingredient). After drying, the leaf disks were inoculated with a spore suspension of the fungus. After appropriate incubation the activity of a compound was assessed 7 days after inoculation as preventive fungicidal activity.

Series [2] deals with Monographella nivalis (Fusarium nivale, Microdochium nivale). Description: Action against Monographella nivalis (snow mould) - fungal growth assay. Type of series: cell-based. The conditions noted are these: 0.002% active ingredient, PDB broth, 24° C., photometric after 72 hrs. As for the experimental part: Conidia of the fungus from cryogenic storage were directly mixed into nutrient broth (PDB potato dextrose broth). After placing a DMSO-solution of the test compounds (0.002% active ingredient) into a microtiter plate (96-well format) the nutrient broth containing the fungal spores was added. The test plates were incubated at 24° C. and the inhibition of growth was measured photometrically after 72 hrs (0=no growth inhibition, ratings of 80% to 99% mean good to very good inhibition, 100%=complete inhibition).

In a further series the test system is Pyrenophora teres. Description: Action against Pyrenophora teres (net blotch) on barley leaf segments. Type of series: in vivo. The conditions noted are these: foliar, 96 h, 0.02% active ingredient sprayed on barley leaf segments, assessed 4 days after inoculation, read-out: preventive fungicidal activity (inhibition). As for the experimental part: Barley leaf segments were placed on agar in multiwell plates (24-well format) and sprayed with test solutions (0.02% active ingredient). After drying, the leaf disks were inoculated with a spore suspension of the fungus. After appropriate incubation the activity of a compound was assessed 4 days after inoculation as preventive fungicidal activity.

The subject of series [3] is Puccinia recondita. Description: Protective action against Puccinia recondita (brown rust) on wheat leaf segments. The settings on record: foliar, 192 h, 0.02% active ingredient sprayed on wheat leaf segments, assessed 8 days after inoculation, read-out: preventive fungicidal activity (inhibition). It counts as in vivo. Here is the method: Wheat leaf segments were placed on agar in multiwell plates (24-well format) and sprayed with test solutions (0.02% active ingredient). After drying, the leaf disks were inoculated with a spore suspension of the fungus. After appropriate incubation the activity of a compound was assessed 8 days after inoculation as preventive fungicidal activity.

Series [4] deals with Mycosphaerella arachidis (Cercospora arachidicola). In words: Action against Mycosphaerella arachidis (early leaf spot of groundnut) - fungal growth assay. The conditions noted are these: 0.002% active ingredient, PDB broth, 24° C., photometric after 6-7 days. It counts as cell-based. Here is the method: Conidia of the fungus from cryogenic storage were directly mixed into nutrient broth (PDB potato dextrose broth). After placing a (DMSO) solution of the test compounds (0.002% active ingredient) into a microtiter plate (96-well format) the nutrient broth containing the fungal spores was added. The test plates were incubated at 24° C. and the inhibition of growth was measured photometrically after 6-7 days. The activity of a compound was expressed as fungal growth inhibition (0=no growth inhibition, ratings of 80% to 99% mean good to very good inhibition, 100%=complete inhibition).

A further series has as its system Septoria tritici. In words: Action against Septoria tritici - fungal growth assay. It counts as cell-based. The settings on record: Zymoseptoria tritici; 0.002% active ingredient, PDB broth, 24° C., photometric after 72 hrs. As for the experimental part:
Conidia of the fungus from cryogenic storage were directly mixed into nutrient broth (PDB potato dextrose broth). After placing a (DMSO) solution of the test compounds (0.002% active ingredient) into a microtiter plate (96-well format) the nutrient broth containing the fungal spores was added. The test plates were incubated at 24° C. and the inhibition of growth was determined photometrically after 72 hrs. The activity of a compound was expressed as fungal growth inhibition (0=no growth inhibition, ratings of 80% to 99% mean good to very good inhibition, 100%=complete inhibition).

For the next series, the system named is Botrytis cinerea. In words: Action against Botrytis cinerea - fungal growth assay. It counts as cell-based. The settings on record: 0.002% active ingredient, PDB broth, 24° C., photometric after 3-4 days. As for the experimental part:
(§1) Conidia of the fungus from cryogenic storage was directly mixed into nutrient broth (PDB potato dextrose broth). After placing a (DMSO) solution of the test compounds (0.002% active ingredient) into a microtiter plate (96-well format) the nutrient broth containing the fungal spores was added. The test plates were incubated at 24° C. and the inhibition of growth was measured photometrically after 3-4 days. The activity of a compound was expressed as fungal growth inhibition (0=no growth inhibition, ratings of 80% to 99% mean good to very good inhibition, 100%=complete inhibition).

In series [5] the test system is Puccinia recondita. In words: Curative action against Puccinia recondita (brown rust) on wheat leaf segments. Type of series: in vivo. The settings on record: foliar, 0.02% active ingredient sprayed one day after inoculation on wheat leaf segments, assessed 8 days after inoculation, read-out: curative fungicidal activity (inhibition). Here is the method: Wheat leaf segments were placed on agar in multiwell plates (24-well format) and inoculated with a spore suspension of the fungus. One day after inoculation the leaf segments were sprayed with test solutions (0.02% active ingredient). After appropriate incubation the activity of a compound was assessed 8 days after inoculation as curative fungicidal activity.

For the next series, the system named is Rhizoctonia solani. In words: Action against Rhizoctonia solani - fungal growth assay. The settings on record: 0.002% active ingredient, PDB broth, 24° C., photometric after 3-4 days. Type of series: cell-based. As for the experimental part:
as §1, with “Mycelial fragments of a newly grown liquid culture” for “Conidia”, “were” for “from cryogenic storage was”

On to `CON(C(=O)c1cn(C)nc1C(F)F)C(C)[C@@H]1C[C@H]1c1c(Cl)sc(Cl)c1Cl` (relative stereo) [Compound 1.063, trans 3-Difluoromethyl-1-methyl-1H-pyrazole-4-carboxylic acid methoxy-{1-[2-(2,4,5-trichloro-thiophen-3-yl)-cyclopropyl]-ethyl}-amide], for which the melting point is 110 to 113 °C and 110 to 130 °C.

`CON(C(=O)c1cn(C)nc1C(F)F)C(C)C1CC1c1ccc(Cl)cc1Cl` (single isomer, unassigned) [Compound 1.018A, trans-3-difluoromethyl-1-methyl-1H-pyrazole-4-carboxylic acid {1-[2-(2,4-dichlorophenyl)-cyclopropyl]-ethyl}-methoxy-amide]: the melting point lay in the range of 133 to 135 °C.

On to `CON(C(=O)c1cn(C)nc1C(F)F)C(C)C1CC1c1ccc(Cl)cc1Cl` (single isomer, unassigned) [Compound 1.018B, trans-3-difluoromethyl-1-methyl-1H-pyrazole-4-carboxylic acid {1-[2-(2,4-dichlorophenyl)-cyclopropyl]-ethyl}-methoxy-amide], for which the melting point was in the range of 142 to 144 °C.

Take `CON(C(=O)c1cn(C)nc1C(F)F)C(C)C1CC1c1ccccc1Cl` (stereo not drawn) [Compound 1.011A, trans 3-difluoromethyl-1-methyl-1H-pyrazole-4-carboxylic acid {1-[2-(2-chloro-phenyl)-cyclopropyl]-ethyl}-methoxy-amide]: the inhibition at 0.02 % strength (in [1]; in the series on Pyrenophora teres; with Puccinia recondita [3]) was not below 80% throughout. Besides, the inhibition at 0.002 % strength (in series [2]; in series [4]; in the series with Septoria tritici; in the series with Botrytis cinerea) was not below 80% throughout.

Turning to `CON(C(=O)c1cn(C)nc1C(F)F)C(C)C1CC1c1ccc(Cl)cc1Cl` (stereo not drawn) [Compound 1.018A, trans-3-difluoromethyl-1-methyl-1H-pyrazole-4-carboxylic acid {1-[2-(2,4-dichlorophenyl)-cyclopropyl]-ethyl}-methoxy-amide], the inhibition at 0.02 % strength (in series [1]; with Pyrenophora teres; with Puccinia recondita [3]) was not below 80% in each case. The inhibition at 0.002 % strength (in series [2]; in [4]; with Septoria tritici; in the series on Botrytis cinerea) was not below 80% each time.

For the molecule `CON(C(=O)c1cn(C)nc1C(F)F)C(C)C1CC1c1ccc(Cl)cc1Cl` (stereo not drawn) [Compound 1.018B, trans-3-difluoromethyl-1-methyl-1H-pyrazole-4-carboxylic acid {1-[2-(2,4-dichlorophenyl)-cyclopropyl]-ethyl}-methoxy-amide], the inhibition at 0.02 % strength in the series with Puccinia recondita [5] was not below 80%.

For the molecule `CON(C(=O)c1cn(C)nc1C(F)F)C(C)C1CC1c1c(F)cccc1Cl` (stereo not drawn) [Compound 1.027, trans 3-difluoromethyl-1-methyl-1H-pyrazole-4-carboxylic acid{1-[2-(2-chloro-6-fluoro-phenyl)-cyclopropyl]-ethyl}-methoxy-amide], the inhibition at 0.02 % strength (in series [1]; in the series on Puccinia recondita [5]; with Pyrenophora teres; in the series with Puccinia recondita [3]) was not below 80% each time. The inhibition at 0.002 % strength (in series [2]; in series [4]; with Septoria tritici; in the series on Botrytis cinerea) was not below 80% in each case.

On to `CON(C(=O)c1cn(C)nc1C(F)F)C(C)C1CC1c1c(Cl)cccc1Cl` (stereo not drawn) [Compound 1.028, trans-3-difluoromethyl-1-methyl-1H-pyrazole-4-carboxylic acid {1-[2-(2,6-dichlorophenyl)-cyclopropyl]-ethyl}-methoxy-amide], for which the inhibition at 0.02 % strength (in series [1]; in the series on Puccinia recondita [5]; in the series on Pyrenophora teres; with Puccinia recondita [3]) was not below 80% throughout. Further, the inhibition at 0.002 % strength (in [2]; in [4]; in the series with Septoria tritici; in the series on Rhizoctonia solani; in the series on Botrytis cinerea) was not below 80% each time.

For the molecule `CON(C(=O)c1cn(C)nc1C(F)F)C(C)C1CC1c1c(Cl)cc(Cl)cc1Cl` (stereo not drawn) [Compound 1.034, trans-3-difluoromethyl-1-methyl-1H-pyrazole-4-carboxylic acid {1-[2-(2,4,6-trichlorophenyl)-cyclopropyl]-ethyl}-methoxy-amide], the inhibition at 0.02 % strength (in series [1]; with Puccinia recondita [5]; in the series with Pyrenophora teres; in the series with Puccinia recondita [3]) was not below 80% throughout. For the same molecule, the inhibition at 0.002 % strength (in series [2]; in [4]; in the series on Septoria tritici; with Rhizoctonia solani; in the series on Botrytis cinerea) was not below 80% each time.

Usually melting point stands for the temperature, or range, at which the solid turns liquid. The term inhibition denotes the percentage by which the read-out fell short of the control.
